The results in this text go back to patent US10100079B2, “Progesterone-cationic lipid hybrid as anticancer agent and the process of synthesis thereof” (Council of Scientific & Industrial Research, priority 2016, dated 2018).

Where two headings read alike, the source gives them in different places.

Test [1] relates to T47D. The experiment in a line: MTT cytotoxicity assay, T47D. It counts as cell-based. The settings on record: Homo sapiens, read-out: IC50 T47D. The method, then:
(§1) All cells were grown into mycoplasma free condition. […] All cells were grown up to 75-85% confluency after which cells were trypsinized, counted and seeded, in 96-well plates for cell viability studies, 6-well plates for apoptosis studies, 60 mm dish for cell cycle studies and in 25 cm^2 or 75 cm^2 tissue culture flasks for Western blot studies. The primary stock of the cationic progesterone molecules were made in cell culture grade DMSO and from that secondary stock was prepared by serial dilution with cell culture grade DMSO. The final working concentrations were prepared by diluting the secondary stock in cell culture media keeping the DMSO concentration in working solution below 0.2% with respect to cell culture medium. […] For this assay, 12-18 h before treatment cells were plated in 96-well plate at 5000 cells/well density. […] After completion of the treatment, 10 μL of MTT solution (5 mg/mL) was added in each well and incubated for 4 h. Then the media was removed carefully, and the reduced MTT was dissolved in 1:1 (v/v) DMSO/Methanol and absorbance was measured using multimode reader (Synergy H1, BioTek). Results were represented as percentage of viability={[A550(treated cells)−background]/[A550(untreated cells)−background]}×100. The result was summarized and provided as IC50 table in Table 1.

Test [2] deals with MCF7. As to the kind of experiment: MTT cytotoxicity assay, MCF7. The settings on record: Homo sapiens, read-out: IC50 MCF7. The test is classed as cell-based. The method, then:
as §1

The test system of test [3] is OVCAR-3. The experiment in a line: MTT cytotoxicity assay, OVCAR-3. It counts as cell-based. Particulars: Homo sapiens, read-out: IC50 OVCAR-3. The method, then:
as §1

In test [4] the test system is B16F10. The experiment in a line: MTT cytotoxicity assay, B16F10. It counts as cell-based, murine. The method, then: as §1
On the technique in general: Tetrazolium assays rely on reduction of a dye to a coloured formazan, in cell work by metabolically active cells.

Test [5] has as its system NIH-3T3. As to the kind of experiment: MTT cytotoxicity assay, NIH-3T3. It counts as cell-based, murine. Particulars: Mus musculus, read-out: IC50 NIH-3T3. The method, then:
as §1

The subject of test [6] is COS-1. The experiment in a line: MTT cytotoxicity assay, COS-1. It counts as cell-based. The settings on record: Chlorocebus aethiops, read-out: IC50 COS-1. The method, then:
as §1

Test [7] has as its system MDA-MB-231 (PgR-negative). The experiment in a line: Cell cycle assay by flow cytometry (PI), MDA-MB-231. It counts as cell-based, human. Particulars: MDA-MB-231, 10 μM, 24 h. The method, then:
To measure the cellular DNA content, cell cycle assay was carried out. In this assay, first cells were synchronized at early S-phase by double thymidine blocking. When cell confluency was reached around 25-30% in 60 mm dish, cells were treated with 2 mM thymidine, diluted in 10% FBS containing DMEM, for 18 h to block cells at early S-phase. To release the blocking, media was discarded and washed with 1×PBS. Then the cells were incubated with fresh cell culture media containing 10% FBS for 9 h. After releasing, second blocking was done with 2 mM thymidine containing media for 17 h. After second blocking cells were released by discarding the thymidine supplemented media and kept in fresh media. All the respective treatments for cell cycle study were done after 2 h of second release.
S-phase synchronized cells were either kept untreated or treated with compound 1 (10 μM) and 6c (10 μM) for 24 h. Cells from different treatment groups were harvested, washed with 1×PBS, and fixed with 70% ethanol and kept at −20° C. for overnight. Then the ethanol was removed and washed with 1×PBS. […] After incubation cells were collected by centrifugation, washed with 1×PBS, re-suspended in 500 μL 1×PBS, and data was recorded using flow cytometer (FACS Canto II, Becton-Dickinson, San Jose, Calif., USA) and data were analyzed with FACS Diva software. […]
(In flow cytometry, cells or beads pass a laser one at a time.)

The subject of test [8] is HUVEC. As to the kind of experiment: Viability study in HUVEC cell (FIG. 7A). The test is classed as cell-based, Human. Particulars: 48 h. The method, then:
2 μM Doxorubicin (DOX) was taken as positive control. + indicates p<0.01.
T47D, MCF-7, MDA-MB-231 (human breast carcinoma), OVCAR-3 (Human ovary carcinoma), B16F10 (murine melanoma), HUVEC (Human umbilical vein endothelium) cells were purchased from the American Type Cell Culture (ATCC, USA) and CHO (Chinese hamster ovary), NIH-3T3 (murine embryo fibroblast) and COS-1 (Kidney fibroblast) cells were purchased from National Center for Cell Sciences (Pune, India). All cells were grown into mycoplasma free condition. […] All cells were grown up to 75-85% confluency after which cells were trypsinized, counted and seeded, in 96-well plates for cell viability studies, 6-well plates for apoptosis studies, 60 mm dish for cell cycle studies and in 25 cm^2 or 75 cm^2 tissue culture flasks for Western blot studies.
Cytotoxicity assay of the different compounds were carried out by using 3-(4,5-dimethylthiazol-2-yl)-2,5-diphenyltetrazolium bromide (MTT). […] Then the media was removed carefully, and the reduced MTT was dissolved in 1:1 (v/v) DMSO/Methanol and absorbance was measured using multimode reader (Synergy H1, BioTek). […]

Test [9] deals with chick embryo vascularization. The experiment in a line: Chick embryo angiogenesis (CEA) assay. The test is classed as in vivo, chicken. The settings on record: 20 μL, 5 μM, 4 h. The method, then: FIG. 7B: In vivo chick embryo angiogenesis (CEA) assay. Vascular sprouting was imaged following 0 h (left panel) and 4 h (right panel) treatment with DMSO, 1 (20 μL, 5 μM) and 6c (20 μL, 5 μM). Damaged vessel is indicated by black arrow.
To measure the anti-angiogenic property chick embryo angiogenesis study was carried out. For this study, fertile chicken eggs were incubated at 37° C. humidified incubator. After four day of incubation, the […] of the eggs were cautiously removed using forceps. After that, the egg yolks were carefully treated with DMSO (20 μL; 0.1% DMSO in IX PBS), compound 1 (20 μL; 5 μM), and 6c (20 μL; 5 μM) for 4 h. Images were captured at 0 and 4 h of incubation with a stereomicroscope (Leica). Different angiogenic parameters were quantified using Angioquant software.

Take `CC(=O)[C@H]1CC[C@H]2[C@@H]3CCC4=CC(=O)CC[C@]4(C)[C@H]3CC[C@]12C` [Compound 1, Progesterone]: the half-maximal inhibitory concentration (IC50) in [1] (MTT, 48 h continuous treatment) is greater than 20 µM; in test [2] (MCF7, MTT, 48 h continuous treatment), greater than 20 µM; in test [3] (OVCAR-3, MTT, 48 h continuous treatment) it was greater than 20 µM; in test [4] (Mus musculus, B16-F10, MTT, 48 h continuous treatment, read-out: IC50 B16F10), greater than 20 µM; in test [5] (NIH3T3, MTT, 48 h continuous treatment, non-cancer cell), greater than 20 µM; in test [6] (COS-1, MTT, 48 h continuous treatment, non-cancer cell), greater than 20 µM. For the same compound, the “total cell population in G2/M phase” value in [7] is 21%. The “effect on cell growth” value in test [8] (2.5 μM or even 10 μM) is recorded as “little to no effect”. Also, the “effect on blood vessels / vascularization network” value in [9] is “either no effect or little increase in the vascularization network”.
As to `CCCCCCCCCC[N+](C)(CCCCCCCCCC)CCNC(=O)CCC(=O)O[C@@H](C)[C@H]1CCC2C3CCC4=CC(=O)CC[C@]4(C)C3CC[C@@]21C` (stereo partly drawn) [Compound 6c, N-decyl-N-(2-(4-((1S)-1-((10R,13S,17S)-10,13-dimethyl-3-oxo-2,3,6,7,8,9,10,11,12,13,14, 15,16,17-tetradecahydro-1H-cyclopenta[a]phenanthren-17-yl)ethoxy)-4-oxobutanamido)ethyl)-N-methyldecan-1-aminium chloride], the IC50 in [1] (48 h) is 4.32 ± 0.57 µM; in [2] (MCF7, 48 h), 7.33 ± 0.19 µM; in test [3] (OVCAR-3, 48 h), 4.48 ± 0.23 µM; in test [4] (Mus musculus, B16-F10, 48 h, read-out: IC50 B16F10, MTT, 48 h continuous treatment) it was 3.63 ± 0.16 µM; in [4] (read-out: IC50 B16F10, MTT, 48 h continuous treatment) it was 6.67 ± 0.27 µM; in test [5] (NIH3T3, 48 h) it was greater than 20 µM. In addition, in test [6] (COS-1, 48 h), the IC50 was greater than 20 µM. For the same compound, the “total cell population in G2/M phase” value in [7] stood at 34%. For the same compound, in test [8] (Homo sapiens, 2.5 μM, read-out: inhibition of cell growth), the inhibition at 2.5 µM amounted to 50%. Further, the “effect on blood vessels / vascularization network” value in test [9] is on record as “blood vessels were either significantly damaged or new blood vessel formation was delayed”.

As a reminder, the IC50 is the concentration needed to halve the response being measured. Broadly, the inhibition is the drop in the measured response relative to a control, in per cent.
